Reference: ChEMBL document CHEMBL1201862, “PubChem BioAssay data set” (2004)
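Cultured in 96-well plates, cells were exposed to test compound for 48 hours across five concentrations. At the GI50, growth is halved.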 Active and inactive are the calls of the source. Cut-off read from the data, not from the text of the source: active = GI50 up to about 1.1 µM and inactive = higher.

Key:
Assay in all cases: DTP human tumour cell line panel, 48 h
[1] = tested on: NCI-H226
[2] = tested on: M14
[3] = tested on: SK-MEL-28
[4] = tested on: UO-31
[5] = tested on: HOP-92
[6] = tested on: A549
[7] = tested on: RPMI-8226
[8] = tested on: Hs-578T
[9] = tested on: SK-MEL-5
[10] = tested on: SN12C
[11] = tested on: MCF7
[12] = tested on: EKVX
[13] = tested on: TK-10
[14] = tested on: SK-MEL-2
[15] = tested on: UACC-257
[16] = tested on: U-251
[17] = tested on: HOP-62
[18] = tested on: T47D
[19] = tested on: SK-OV-3
[20] = tested on: DU-145

Measured: GI50

Cc1cc(=O)oc2c(OS(C)(=O)=O)c(OS(C)(=O)=O)ccc12
inactive: [1] > 100 µM | [2] > 100 µM | [3] > 100 µM | [4] > 100 µM | [5] > 100 µM | [6] > 100 µM | [7] > 100 µM | [8] > 100 µM | [9] > 100 µM | [10] > 100 µM | [11] > 100 µM | [12] > 100 µM | [13] > 100 µM | [14] > 100 µM | [15] > 100 µM | [16] > 100 µM | [17] > 100 µM

C=C1CCC2CC1C(C(=O)c1c[nH]c3ccccc13)=NC2(C)C (configuration not stated)
inactive: [18] 48.2 µM | [1] > 100 µM | [2] > 100 µM | [3] > 100 µM | [4] > 100 µM | [6] > 100 µM | [7] 91 µM | [8] > 100 µM | [9] > 100 µM | [10] > 100 µM | [11] > 100 µM | [12] 77.3 µM | [15] > 100 µM | [19] > 100 µM | [20] > 100 µM | [16] > 100 µM | [17] > 100 µM

Oc1ccc(Cc2cc(Cc3ccc(O)cc3)cc(Cc3ccc(O)cc3)c2)cc1
inactive: [1] > 50 µM | [2] > 50 µM | [3] > 50 µM | [4] > 50 µM | [6] > 50 µM | [7] > 50 µM | [8] > 50 µM | [10] > 50 µM | [11] > 50 µM | [12] > 50 µM | [13] > 50 µM | [14] > 50 µM | [15] > 50 µM | [19] > 50 µM | [20] > 50 µM | [16] > 50 µM | [17] > 50 µM

Cn1c(=O)oc2nc(-c3ccccc3)cc(C(F)(F)F)c21
inactive: [18] > 100 µM | [1] > 100 µM | [2] > 100 µM | [3] > 100 µM | [4] > 100 µM | [5] 35.7 µM | [6] > 100 µM | [7] 30.5 µM | [9] 50.7 µM | [10] 5.71 µM | [11] 37.8 µM | [12] > 100 µM | [13] > 100 µM | [14] > 100 µM | [15] > 100 µM | [19] > 100 µM | [20] > 100 µM | [16] 95.3 µM | [17] > 100 µM

Cc1c(/C=N/NC(=S)N2CCCCC2)c(=O)n(-c2ccccc2)n1C
inactive: [1] > 100 µM | [2] 61.9 µM | [3] 75.2 µM | [4] 42.4 µM | [5] > 100 µM | [6] 55.3 µM | [7] 67.5 µM | [8] 39.3 µM | [9] 38.5 µM | [11] 43.9 µM | [12] 43.8 µM | [13] 61.2 µM | [15] > 100 µM | [19] 68.1 µM | [20] > 100 µM | [16] 83.2 µM | [17] 88.9 µM

Cc1cccc(-n2c(C)nc3ccc(NC(=S)Nc4ccccc4)cc3c2=O)c1
inactive: [18] 38 µM | [1] 81.1 µM | [3] > 100 µM | [4] 47.4 µM | [7] 35.2 µM | [8] > 100 µM | [9] 18.2 µM | [10] > 100 µM | [11] 67 µM | [12] 55.7 µM | [13] > 100 µM | [14] 39 µM | [15] 47.6 µM | [20] 87.7 µM | [16] > 100 µM | [17] > 100 µM

Cc1cc2nc(N)n[n+]([O-])c2cc1C
inactive: [18] > 100 µM | [1] > 100 µM | [2] > 100 µM | [3] > 100 µM | [4] > 100 µM | [6] > 100 µM | [7] > 100 µM | [8] > 100 µM | [9] > 100 µM | [10] > 100 µM | [11] > 100 µM | [12] > 100 µM | [13] > 100 µM | [14] > 100 µM | [15] > 100 µM | [19] > 100 µM | [20] > 100 µM | [16] > 100 µM | [17] > 100 µM

Cc1cc(N(CCC#N)CCC#N)ccc1C(/N=N\c1ccc([N+](=O)[O-])cc1)=N\NC(=O)c1cc(Cl)ccc1O
inactive: [18] 25.9 µM | [1] 25.5 µM | [2] 42 µM | [4] 13.8 µM | [6] 38.6 µM | [7] > 100 µM | [8] 15.7 µM | [9] 30.6 µM | [10] 22.6 µM | [11] 22.6 µM | [12] 24.3 µM | [13] 46.1 µM | [14] 34.4 µM | [15] 34 µM | [19] 50.7 µM | [20] 46.3 µM | [16] 46.1 µM | [17] 26.2 µM

CN(C)CCNC(=O)c1cnn(C)c1[N+](=O)[O-]
inactive: [18] > 100 µM | [1] > 100 µM | [2] > 100 µM | [3] > 100 µM | [4] > 100 µM | [6] > 100 µM | [7] > 100 µM | [8] > 100 µM | [9] 44.5 µM | [10] > 100 µM | [11] 63.4 µM | [12] > 100 µM | [13] > 100 µM | [14] > 100 µM | [15] 53 µM | [19] > 100 µM | [20] > 100 µM | [16] > 100 µM | [17] > 100 µM

Cc1ccc(C2=CC(=O)OC(C[P+](c3ccccc3)(c3ccccc3)c3ccccc3)(c3ccccc3)O2)cc1 (configuration not stated)
inactive: [18] 20.6 µM | [1] 27.1 µM | [2] 17 µM | [3] 19 µM | [4] 16.3 µM | [6] 15.8 µM | [7] 17.5 µM | [8] 18.2 µM | [9] 15.4 µM | [10] 27.2 µM | [11] 21.1 µM | [12] 15.3 µM | [13] 20.1 µM | [14] 15.2 µM | [15] 16.9 µM | [19] 18.2 µM | [20] 16.5 µM | [16] 17.9 µM | [17] 19.5 µM

N#Cc1c(Cl)c(C=O)c(=O)n2c1[nH]c1ccccc12
inactive: [1] 24.7 µM | [2] 28.4 µM | [3] 63.1 µM | [4] 46.2 µM | [5] 24.2 µM | [6] > 100 µM | [7] > 100 µM | [8] 45.1 µM | [9] 91.8 µM | [10] 61.8 µM | [11] 33.3 µM | [12] > 100 µM | [13] > 100 µM | [15] 56.8 µM | [19] > 100 µM | [20] 50.4 µM | [16] 67 µM | [17] 39 µM

COc1ccc(-n2c(=O)c3nc[nH]c3n(-c3ccc(OC)cc3)c2=S)cc1
inactive: [18] > 100 µM | [1] > 100 µM | [2] > 100 µM | [3] > 100 µM | [4] > 100 µM | [5] > 100 µM | [6] > 100 µM | [7] > 100 µM | [9] > 100 µM | [10] > 100 µM | [11] > 100 µM | [12] > 100 µM | [13] > 100 µM | [14] > 100 µM | [15] > 100 µM | [19] > 100 µM | [20] > 100 µM | [16] > 100 µM | [17] > 100 µM

CN1CC=C(C#CC(C)(C)O)CC1
inactive: [18] > 37.5 µM | [1] > 37.5 µM | [2] > 37.5 µM | [3] > 37.5 µM | [4] > 37.5 µM | [6] > 37.5 µM | [7] > 37.5 µM | [8] > 37.5 µM | [9] > 37.5 µM | [10] > 37.5 µM | [11] > 37.5 µM | [12] > 37.5 µM | [13] > 37.5 µM | [14] > 37.5 µM | [15] > 37.5 µM | [19] > 37.5 µM | [20] > 37.5 µM | [16] > 37.5 µM | [17] > 37.5 µM

CCOC(=O)c1cc(-c2ccc(Cl)cc2)c([N+](=O)[O-])n1C
inactive: [18] 2.05 µM | [1] > 10 µM | [2] > 10 µM | [4] 5.48 µM | [5] > 10 µM | [6] > 10 µM | [8] > 10 µM | [10] > 10 µM | [12] > 10 µM | [13] > 10 µM | [14] > 10 µM | [15] > 10 µM | [19] > 10 µM | [20] > 10 µM | [16] > 10 µM

Cc1c(O)c(OC2OC(CO)C(O)C(O)C2O)cc2c1CC[C@@H]1C2(C)C(=O)C[C@]2(C)[C@@H]([C@@](C)(O)C(=O)CCC(C)(C)O)[C@H](O)C[C@@]12C (some centres not stated)
inactive: [18] > 100 µM | [1] > 100 µM | [2] > 100 µM | [3] > 100 µM | [4] > 100 µM | [5] > 100 µM | [6] > 100 µM | [9] > 100 µM | [10] > 100 µM | [11] > 100 µM | [12] > 100 µM | [13] > 100 µM | [14] > 100 µM | [15] > 100 µM | [19] > 100 µM | [20] > 100 µM | [16] > 100 µM | [17] > 100 µM
